# Key:
# Assay in all cases: Microdilution antimicrobial susceptibility test (MIC)
# Assay type in all cases: cell-based
# S pneumoniae = details: broth microdilution, 18-24 h, CO2-enriched atmosphere, MIC = 90% inhibition of growth; for MIC: read-out: MIC S pneumoniae MIC6
# E coli (ImpA) = details: broth microdilution, 18-24 h, MIC = 90% inhibition of growth; for MIC: read-out: MIC E coli (ImpA) MIC9
# Method: Microdilution Antimicrobial Susceptibility Test Assay
# Stock solutions of tested compounds were prepared in N,N-dimethylformamide (DMF) at a concentration of 5 mg/mL. Working solutions of the tested compounds were then prepared from the stock solutions, in Mueller-Hinton broth (MHB) with a starting concentration of 64 μg/mL.
# Bacterial inocula were prepared from overnight culture (i.e., one fresh colony from agar plate in 5 ml MHB; H. influenzae was grown in MHB with the addition of yeast extract, haematin, and NAD), centrifuged 2×5 min/3000 rpm (for S. pneumoniae and H. influenzae, 2×10 min/3000 rpm), and dispensed in 5 ml of fresh MHB each time, such that the bacterial suspension is diluted to obtain 100 colony forming units (cfu) in a microplate well (100 μl total volume).
# Microplate wells were filled with two-fold dilutions of test compound (50 Al), starting with 64 μg/ml. Wells were then filled with 50 μl of bacterial inoculum (final volume: 100 μl/well). The plates were incubated at 37° C. for 18-24 hours (S. pneumoniae was grown in a CO2-enriched atmosphere).
# S aureus = details: broth microdilution, 18-24 h, MIC = 90% inhibition of growth; for MIC: read-out: MIC S aureus MIC2
# M. catarrhalis = details: broth microdilution, 18-24 h, MIC = 90% inhibition of growth; for MIC: Moraxella catarrhalis, read-out: MIC M. catarrhalis MIC2
# S cerevisiae = details: broth microdilution, 18-24 h, MIC = 90% inhibition of growth; for MIC: read-out: MIC S cerevisiae MIC7
# H influenzae = details: broth microdilution, 18-24 h, MIC = 90% inhibition of growth; for MIC: read-out: MIC H influenzae MIC4
# E faecalis = details: broth microdilution, 18-24 h, MIC = 90% inhibition of growth; for MIC: read-out: MIC E faecalis MIC2
# E coli = details: broth microdilution, 18-24 h, MIC = 90% inhibition of growth; for MIC: read-out: MIC E coli MIC2
# P aeruginosa = details: broth microdilution, 18-24 h, MIC = 90% inhibition of growth
structure (smiles),measurement,setting,value
O=[N+]([O-])c1ccc(-c2nnc(S)n2CCCN2CCOCC2)o1 [Compound 120],MIC S pneumoniae MIC6,S pneumoniae,16 µg/mL
same,MIC E coli (ImpA) MIC9,E coli (ImpA),32 µg/mL
same,MIC S aureus MIC2,S aureus,64 µg/mL
same,MIC M. catarrhalis MIC2,M. catarrhalis,2 µg/mL
same,MIC S cerevisiae MIC7,S cerevisiae,64 µg/mL
same,MIC H influenzae MIC4,H influenzae,16 µg/mL
same,MIC E faecalis MIC2,E faecalis,64 µg/mL
same,MIC E coli MIC2,E coli,>64 µg/mL
Cn1c(SCc2ccncc2)nnc1-c1ccc([N+](=O)[O-])o1 [Compound 129],MIC S pneumoniae MIC6,S pneumoniae,16 µg/mL
same,MIC E coli (ImpA) MIC9,E coli (ImpA),4 µg/mL
same,MIC S aureus MIC2,S aureus,16 µg/mL
same,MIC M. catarrhalis MIC2,M. catarrhalis,0.5 µg/mL
same,MIC S cerevisiae MIC7,S cerevisiae,>64 µg/mL
same,MIC H influenzae MIC4,H influenzae,16 µg/mL
same,MIC E faecalis MIC2,E faecalis,64 µg/mL
same,MIC E coli MIC2,E coli,64 µg/mL
"Cn1c(SCCCO)nnc1-c1ccc([N+](=O)[O-])o1 [Compound 116, 5-[2-(5-Nitro)furyl]-4-methyl-4H-1,2,4-triazole-3-(3-hydroxypropyl)-thiol]",MIC,S pneumoniae,8 µg/mL
same,MIC,E coli (ImpA),1 µg/mL
same,MIC,S aureus,8 µg/mL
same,MIC,M. catarrhalis,0.5 µg/mL
same,MIC,S cerevisiae,> 64 µg/mL
same,MIC,H influenzae,16 µg/mL
same,MIC,E faecalis,8 µg/mL
same,MIC,E coli,8 µg/mL
O=[N+]([O-])c1ccc(-c2nnc(S(=O)(=O)O)n2-c2ccc(Cl)cc2)o1 [Compound 132],MIC S pneumoniae MIC6,S pneumoniae,32 µg/mL
same,MIC E coli (ImpA) MIC9,E coli (ImpA),16 µg/mL
same,MIC P aeruginosa MIC2,P aeruginosa,>64 µg/mL
same,MIC S aureus MIC2,S aureus,32 µg/mL
same,MIC M. catarrhalis MIC2,M. catarrhalis,4 µg/mL
same,MIC S cerevisiae MIC7,S cerevisiae,64 µg/mL
same,MIC H influenzae MIC4,H influenzae,8 µg/mL
same,MIC E faecalis MIC2,E faecalis,>64 µg/mL
same,MIC E coli MIC2,E coli,>64 µg/mL
O=[N+]([O-])c1ccc(-c2nnc(S)n2Cc2ccccc2)o1 [Compound 135],MIC S pneumoniae MIC6,S pneumoniae,8 µg/mL
same,MIC E coli (ImpA) MIC9,E coli (ImpA),32 µg/mL
same,MIC S aureus MIC2,S aureus,32 µg/mL
same,MIC M. catarrhalis MIC2,M. catarrhalis,1 µg/mL
same,MIC S cerevisiae MIC7,S cerevisiae,>64 µg/mL
same,MIC H influenzae MIC4,H influenzae,64 µg/mL
same,MIC E faecalis MIC2,E faecalis,16 µg/mL
same,MIC E coli MIC2,E coli,>64 µg/mL
CCCCn1c(S)nnc1-c1ccc([N+](=O)[O-])o1 [Compound 133],MIC S pneumoniae MIC6,S pneumoniae,64 µg/mL
same,MIC E coli (ImpA) MIC9,E coli (ImpA),64 µg/mL
same,MIC S aureus MIC2,S aureus,64 µg/mL
same,MIC M. catarrhalis MIC2,M. catarrhalis,32 µg/mL
same,MIC S cerevisiae MIC7,S cerevisiae,64 µg/mL
same,MIC H influenzae MIC4,H influenzae,32 µg/mL
same,MIC E faecalis MIC2,E faecalis,>64 µg/mL
same,MIC E coli MIC2,E coli,>64 µg/mL
O=[N+]([O-])c1ccc(-c2nnc(S)n2-c2ccc(I)cc2)o1 [Compound 138],MIC E coli (ImpA) MIC9,E coli (ImpA),0.25 µg/mL
same,MIC S aureus MIC2,S aureus,0.5 µg/mL
same,MIC M. catarrhalis MIC2,M. catarrhalis,<0.12 µg/mL
same,MIC S cerevisiae MIC7,S cerevisiae,16 µg/mL
same,MIC H influenzae MIC4,H influenzae,8 µg/mL
same,MIC E faecalis MIC2,E faecalis,1 µg/mL
same,MIC E coli MIC2,E coli,>64 µg/mL
O=[N+]([O-])c1ccc(-c2nnc(S(=O)(=O)O)n2Cc2ccccc2)o1 [Compound 128],MIC S pneumoniae MIC6,S pneumoniae,64 µg/mL
same,MIC E coli (ImpA) MIC9,E coli (ImpA),>64 µg/mL
same,MIC P aeruginosa MIC2,P aeruginosa,>64 µg/mL
same,MIC S aureus MIC2,S aureus,>64 µg/mL
same,MIC M. catarrhalis MIC2,M. catarrhalis,16 µg/mL
same,MIC S cerevisiae MIC7,S cerevisiae,>64 µg/mL
same,MIC H influenzae MIC4,H influenzae,64 µg/mL
same,MIC E faecalis MIC2,E faecalis,>64 µg/mL
same,MIC E coli MIC2,E coli,>64 µg/mL
O=[N+]([O-])c1ccc(-c2nnc(S)n2-c2ccc(Br)cc2)o1 [Compound 141],MIC S pneumoniae MIC6,S pneumoniae,2 µg/mL
same,MIC E coli (ImpA) MIC9,E coli (ImpA),<0.12 µg/mL
same,MIC S aureus MIC2,S aureus,0.25 µg/mL
same,MIC M. catarrhalis MIC2,M. catarrhalis,0.125 µg/mL
same,MIC S cerevisiae MIC7,S cerevisiae,64 µg/mL
same,MIC H influenzae MIC4,H influenzae,8 µg/mL
same,MIC E faecalis MIC2,E faecalis,2 µg/mL
same,MIC E coli MIC2,E coli,>64 µg/mL
CSc1nnc(-c2ccc([N+](=O)[O-])o2)n1C [Compound 124],MIC,S pneumoniae,8 µg/mL
same,MIC,E coli (ImpA),2 µg/mL
same,MIC,S aureus,16 µg/mL
same,MIC,M. catarrhalis,1 µg/mL
same,MIC,S cerevisiae,16 µg/mL
same,MIC,H influenzae,8 µg/mL
same,MIC,E faecalis,32 µg/mL
same,MIC,E coli,64 µg/mL
Nn1c(S)nnc1-c1ccc([N+](=O)[O-])o1 [Compound 110],MIC,S pneumoniae,32 µg/mL
same,MIC,S aureus,32 µg/mL
same,MIC,M. catarrhalis,32 µg/mL
same,MIC,S cerevisiae,64 µg/mL
same,MIC,H influenzae,8 µg/mL
same,MIC,E faecalis,> 128 µg/mL
same,MIC,E coli,16 µg/mL
C=CCn1c(S)nnc1-c1ccc([N+](=O)[O-])o1 [Compound 130],MIC S pneumoniae MIC6,S pneumoniae,16 µg/mL
same,MIC E coli (ImpA) MIC9,E coli (ImpA),64 µg/mL
same,MIC S aureus MIC2,S aureus,>64 µg/mL
same,MIC M. catarrhalis MIC2,M. catarrhalis,4 µg/mL
same,MIC S cerevisiae MIC7,S cerevisiae,>64 µg/mL
same,MIC H influenzae MIC4,H influenzae,32 µg/mL
same,MIC E faecalis MIC2,E faecalis,64 µg/mL
same,MIC E coli MIC2,E coli,>64 µg/mL
O=[N+]([O-])c1ccc(-c2nnc(S)n2-c2ccccc2)o1 [Compound 134],MIC S pneumoniae MIC6,S pneumoniae,8 µg/mL
same,MIC E coli (ImpA) MIC9,E coli (ImpA),2 µg/mL
same,MIC S aureus MIC2,S aureus,2 µg/mL
same,MIC M. catarrhalis MIC2,M. catarrhalis,0.25 µg/mL
same,MIC S cerevisiae MIC7,S cerevisiae,>64 µg/mL
same,MIC H influenzae MIC4,H influenzae,8 µg/mL
same,MIC E faecalis MIC2,E faecalis,64 µg/mL
O=[N+]([O-])c1ccc(-c2nnc(S)n2C2CCCCC2)o1 [Compound 137],MIC S pneumoniae MIC6,S pneumoniae,8 µg/mL
same,MIC E coli (ImpA) MIC9,E coli (ImpA),32 µg/mL
same,MIC S aureus MIC2,S aureus,>64 µg/mL
same,MIC M. catarrhalis MIC2,M. catarrhalis,1 µg/mL
same,MIC S cerevisiae MIC7,S cerevisiae,>64 µg/mL
same,MIC H influenzae MIC4,H influenzae,16 µg/mL
same,MIC E faecalis MIC2,E faecalis,32 µg/mL
same,MIC E coli MIC2,E coli,>64 µg/mL
O=[N+]([O-])c1ccc(-c2nnc(S)n2-c2ccc(F)cc2)o1 [Compound 136],MIC S pneumoniae MIC6,S pneumoniae,8 µg/mL
same,MIC E coli (ImpA) MIC9,E coli (ImpA),16 µg/mL
same,MIC S aureus MIC2,S aureus,32 µg/mL
same,MIC M. catarrhalis MIC2,M. catarrhalis,4 µg/mL
same,MIC S cerevisiae MIC7,S cerevisiae,64 µg/mL
same,MIC H influenzae MIC4,H influenzae,16 µg/mL
same,MIC E faecalis MIC2,E faecalis,64 µg/mL
same,MIC E coli MIC2,E coli,>64 µg/mL
"O=[N+]([O-])c1ccc(-c2nnc(S)n2-c2ccc(Cl)cc2)o1 [Compound 139, 4-(4-Chlorophenyl)-5-(5-nitrofuranyl)-4H-1,2,4-triazol-3-thiol]",MIC,S pneumoniae,2 µg/mL
same,MIC,E coli (ImpA),< 0.12 µg/mL
same,MIC,S aureus,0.25 µg/mL
same,MIC,M. catarrhalis,< 0.12 µg/mL
same,MIC,S cerevisiae,32 µg/mL
same,MIC,H influenzae,2 µg/mL
same,MIC,E faecalis,2 µg/mL
same,MIC,E coli,> 64 µg/mL
CCn1c(S)nnc1-c1ccc([N+](=O)[O-])o1 [Compound 126],MIC,S pneumoniae,16 µg/mL
same,MIC,S aureus,> 64 µg/mL
same,MIC,M. catarrhalis,4 µg/mL
same,MIC,S cerevisiae,> 64 µg/mL
same,MIC,H influenzae,32 µg/mL
same,MIC,E faecalis,64 µg/mL
same,MIC,E coli,> 64 µg/mL
O=[N+]([O-])c1ccc(-c2nnc(S)[nH]2)o1 [Compound 117],MIC,S pneumoniae,2 µg/mL
same,MIC,E coli (ImpA),16 µg/mL
same,MIC,S aureus,64 µg/mL
same,MIC,M. catarrhalis,2 µg/mL
same,MIC,S cerevisiae,> 64 µg/mL
same,MIC,H influenzae,8 µg/mL
same,MIC,E faecalis,32 µg/mL
same,MIC,E coli,> 64 µg/mL
O=[N+]([O-])c1ccc(-c2nnc(S)n2-c2ccc(Br)c(Cl)c2)o1 [Compound 142],MIC S pneumoniae MIC6,S pneumoniae,2 µg/mL
same,MIC E coli (ImpA) MIC9,E coli (ImpA),<0.12 µg/mL
same,MIC S aureus MIC2,S aureus,<0.12 µg/mL
same,MIC M. catarrhalis MIC2,M. catarrhalis,<0.12 µg/mL
same,MIC S cerevisiae MIC7,S cerevisiae,64 µg/mL
same,MIC H influenzae MIC4,H influenzae,8 µg/mL
same,MIC E faecalis MIC2,E faecalis,1 µg/mL
same,MIC E coli MIC2,E coli,>64 µg/mL
Cn1c(SCC#N)nnc1-c1ccc([N+](=O)[O-])o1 [Compound 121],MIC S pneumoniae MIC6,S pneumoniae,16 µg/mL
same,MIC E coli (ImpA) MIC9,E coli (ImpA),2 µg/mL
same,MIC S aureus MIC2,S aureus,16 µg/mL
same,MIC M. catarrhalis MIC2,M. catarrhalis,1 µg/mL
same,MIC S cerevisiae MIC7,S cerevisiae,>64 µg/mL
same,MIC H influenzae MIC4,H influenzae,16 µg/mL
same,MIC E faecalis MIC2,E faecalis,64 µg/mL
same,MIC E coli MIC2,E coli,8 µg/mL
